# From patent US20100221763A1, “Specific Acceptors for Transferases to Saccharides and Method for Obtaining and Using Same” (Health Research, Inc, priority 2005, published 2010)
# Where “and” joins values, the source holds several entries; their conditions need not be identical. Equal entries are not always repeated. Marks after values point to notes of the source that are not given here.
# Legend:
# [1] = target: T1, Rat recombinant α2,6(N)ST (Rattus norvegicus, UniProt P13721); experiment: Sialyltransferase assay with cloned α2,6(N)ST; type: biochemical; details: for Sialyltransferase activity (%) Cloned α2,6(N)ST: Table I, acceptor 7.5 mM, 100% = 43500 CPM (Galβ1,4GlcNAcβ-O—Al); for Cloned Sialyltransferase Activities α2,6(N)ST %: Table III, compound 7.5 mM, 100% = 30440 CPM (Galβ1,4GlcNAcβ1,6(3-O-MeGalβ1,3)GalNAcα-O-Bn)
# T1 construct: purchased Calbiochem
# T1 sequence (P13721 1-403): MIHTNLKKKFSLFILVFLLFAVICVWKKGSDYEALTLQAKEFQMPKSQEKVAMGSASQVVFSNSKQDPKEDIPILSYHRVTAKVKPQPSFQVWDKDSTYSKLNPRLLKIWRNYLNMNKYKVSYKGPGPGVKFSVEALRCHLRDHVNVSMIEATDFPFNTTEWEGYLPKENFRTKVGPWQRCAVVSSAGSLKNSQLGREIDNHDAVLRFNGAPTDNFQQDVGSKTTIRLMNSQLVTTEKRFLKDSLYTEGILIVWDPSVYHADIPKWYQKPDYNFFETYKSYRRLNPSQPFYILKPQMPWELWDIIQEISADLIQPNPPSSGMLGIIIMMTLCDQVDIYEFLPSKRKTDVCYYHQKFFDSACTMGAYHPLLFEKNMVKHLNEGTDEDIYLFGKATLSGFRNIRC
# Method: (§1) Rat recombinant α2,3(O)ST, α2,3(N)ST and α2,6(N)ST were purchased from Calbiochem and stored at either −20° C. or −70° C. as recommended by the supplier. […] 10 μl aliquots of the diluted enzymes were used in the assays run in duplicate.
# (§2) The incubation mixtures run in duplicate contained 0.1M NaCacodylate buffer pH6.0, the acceptor (typically at 7.5 mM, or as indicated in some experiments), CMP-[9 ^3H] NeuAc (typically 0.2 μci; 20 μci/nmol or as indicated in some experiments) and the enzyme in a total volume of 20 μl. The control incubation mixtures contained everything except the acceptor. Incubation was carried out for 2 h at 37° C. The enzymatic transfer of [9-^3H] NeuAc to a typical acceptor was linear for 2 h and less than 30% CMP-[9-^3H] NeuAc was utilized. Chromatography, using either Dowex-1-Formate, Sep-Pak C18 or Biogel P2, was applied to separate radioactive product from un-reacted [9-^3H] NeuAc as described below.
# (§3) The radioactive products from neutral allyl and methyl glycosides as well as non-glycosides were measured by fractionation on Dowex-1-Formate (Bio-Rad: AG-1X8; 200-400 mesh; format form) as follows: The incubation mixture was diluted with 1.0 ml water and passed through AG-1-formate column (1.0 ml bed volume in a Pasteur pipet which had been washed with 5 ml of 2M Formic acid followed by 10 ml water). The column was washed twice with 1.0 ml water after the entry of the sample and then eluted with 3.0 ml of 0.1M NaCl. The radioactivity present in water and 0.1M NaCl eluates were measured separately using 3a70 scintillation cocktail (Research Products International, Mount Prospect, Ill.) and a Beckman LS6500 scintillation counter. The CPM values were corrected by subtracting the blank CPM. Any radioactivity present in the water eluate (as noticed in the case of some methylglycosides) was added to the corresponding CPM value of 0.1M NaCl eluate. The radioactive products from sulfated and/or sialylated methylglycosides were also measured by the above procedure, only the elution of the AG-1-Formate column was continued further with 3.0 ml of 0.2M NaCl for achieving a complete elution of the radioactive product, a correction being made as before by subtracting the corresponding blank values.
# (§4) The radioactive products from benzylglycosides and monosialylated benzylglycosides were measured by hydrophobic chromatography on Sep-Pak C18 cartridge (Waters, Milford, Mass.) and eluting the product with 3.0 ml methanol (30). The radioactivity was determined by liquid scintillation as above.
# (§5) For such work, a Biogel P2 column (Fine Mesh; 1.0×116.0 cm) was used with 0.1M pyridine acetate pH5.4 as the eluent at room temperature. The effluent fractions were monitored for radioactivity and the first peak containing radioactivity was collected, lyophilized to dryness, dissolved in 200 μl of water and stored frozen at −20° C. for thin layer chromatography (TLC) and other experimentation.
# [2] = target: T2, Rat recombinant α2,3(N)ST (Rattus norvegicus, UniProt Q02734); experiment: Sialyltransferase assay with cloned α2,3(N)ST; type: biochemical; details: for Sialyltransferase activity (%) Cloned α2,3(N)ST: Table I, acceptor 7.5 mM, 100% = 29520 CPM (Galβ1,4GlcNAcβ-O—Al); for Cloned Sialyltransferase Activities α2,3(N) ST %: Table III, compound 7.5 mM, 100% = 38140 CPM (Galβ1,4GlcNAcβ1,6(3-O-MeGalβ1,3)GalNAcα-O-Bn)
# T2 construct: purchased Calbiochem
# T2 sequence (Q02734 29-374 limits assumed): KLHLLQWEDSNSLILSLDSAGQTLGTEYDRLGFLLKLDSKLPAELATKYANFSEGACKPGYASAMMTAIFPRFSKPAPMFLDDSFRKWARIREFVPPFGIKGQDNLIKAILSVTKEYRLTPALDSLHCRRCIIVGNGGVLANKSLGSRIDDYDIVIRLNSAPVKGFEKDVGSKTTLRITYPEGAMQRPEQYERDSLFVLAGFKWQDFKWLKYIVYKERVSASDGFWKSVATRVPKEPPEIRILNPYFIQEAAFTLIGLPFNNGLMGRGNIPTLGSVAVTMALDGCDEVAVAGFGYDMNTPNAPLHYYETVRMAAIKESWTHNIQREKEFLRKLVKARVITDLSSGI
# Method: as §1, §2, §3, §4, §5
# [3] = target: T3, Rat recombinant α2,3(O)ST (Rattus norvegicus, UniProt Q11205); experiment: Sialyltransferase assay with cloned α2,3(O)ST; type: biochemical; details: for Sialyltransferase activity (%) Cloned α2,3(O)ST: Table I, acceptor 7.5 mM, 100% = 40560 CPM (3-O-MeGalβ1,4GlcNAcβ1,6(Galβ1,3)GalNAcα-O-Bn); for Cloned Sialyltransferase Activities α2,3(O) ST %: Table III, compound 7.5 mM, 100% = 39200 CPM (3-O-MeGalβ1,4GlcNAcβ1,6(Galβ1,3)GalNAcα-O-Bn)
# T3 construct: purchased Calbiochem
# T3 sequence (Q11205 1-350): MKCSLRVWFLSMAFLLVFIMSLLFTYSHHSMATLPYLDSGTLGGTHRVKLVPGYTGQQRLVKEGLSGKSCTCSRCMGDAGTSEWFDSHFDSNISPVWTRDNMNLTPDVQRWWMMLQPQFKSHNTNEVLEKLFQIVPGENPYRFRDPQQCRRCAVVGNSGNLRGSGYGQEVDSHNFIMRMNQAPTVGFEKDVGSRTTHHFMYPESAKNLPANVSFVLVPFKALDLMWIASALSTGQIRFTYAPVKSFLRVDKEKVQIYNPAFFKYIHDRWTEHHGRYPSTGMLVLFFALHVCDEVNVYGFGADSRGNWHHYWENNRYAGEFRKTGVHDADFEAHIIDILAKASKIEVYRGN
# Method: as §1, §2, §3, §4, §5
# LNCaP α2,3(O)ST = experiment: Sialyltransferase assay with LNCaP cell extract; type: biochemical, human
# Method: The prostate carcinoma cell line, LNCaP, was grown in RPMI 1640 supplemented with 10% fetal bovine serum and antibiotics (penicillin, streptomycin and amphotericin B) under conditions recommended by American Type Culture Collection (Manassas, Va.). The cells were homogenized with 0.1M Tris-Maleate pH6.3 containing 2% Triton X-100 using a Dounce all glass hand-operated homogenizer. The homogenate was centrifuged at 16,000 g for 1 h at 4° C. Protein concentration in supernatant was measured using the BCA assay (Pierce Biotech, Inc., Rockford, Ill.), with BSA as the standard. The supernatant was adjusted to 5 mg protein/ml by adding the necessary amount of extraction buffer and then stored frozen at −20° C. until use. 10 μl aliquot of this extract was used in assays run in duplicate.
# as §2, §3, §4, §5
"Sialyltransferase activity (%) Cloned α2,6(N)ST [1]","Sialyltransferase activity (%) Cloned α2,3(N)ST [2]","Sialyltransferase activity (%) Cloned α2,3(O)ST [3]",SMILES,also measured
7.1%,19.0%,133.4%,"CO[C@H]1O[C@H](CO[C@@H]2O[C@H](CO)[C@@H](O[C@@H]3O[C@H](CO)[C@H](O)[C@H](O)[C@H]3O)[C@H](O[C@@H]3O[C@@H](C)[C@@H](O)[C@@H](O)[C@@H]3O)[C@H]2NC(C)=O)[C@H](O)[C@H](O[C@@H]2O[C@H](CO)[C@H](O)[C@H](O)[C@H]2O)[C@H]1NC(C)=O [Galβ1,4(Fucα1,3)GlcNAcβ1,6(Galβ1,3)GalNAcα-O-Me]",
93.3%,100.7%,94.4^4%,"CC(=O)N[C@H]1[C@H](OC[C@H]2O[C@H](OCc3ccccc3)[C@H](NC(C)=O)[C@@H](O[C@@H]3O[C@H](CO)[C@H](O)[C@H](O)[C@H]3O)[C@H]2O)O[C@H](CO)[C@@H](O[C@@H]2O[C@H](CO)[C@H](O)[C@H](O)[C@H]2O)[C@@H]1O [Galβ1,4GlcNAcβ1,6(Galβ1,3)GalNAcα-O-Bn]","α2,6(N)ST activity at varying acceptor concentration (FIG. 3A) ([1]; lowest concentration tested, 0.15 mM): considerable activity"
0%,1.7%,,"CO[C@H]1O[C@H](CO[C@@H]2O[C@H](COS(=O)(=O)O)[C@@H](O[C@@H]3O[C@H](CO)[C@H](O)[C@H](O)[C@H]3O)[C@H](O[C@@H]3O[C@@H](C)[C@@H](O)[C@@H](O)[C@@H]3O)[C@H]2NC(C)=O)[C@H](O)[C@H](O[C@@H]2O[C@H](CO)[C@H](O)[C@H](O[C@]3(C(=O)O)C[C@H](O)[C@@H](NC(C)=O)[C@H]([C@H](O)[C@H](O)CO)O3)[C@H]2O)[C@H]1NC(C)=O [Galβ1,4(6-O-Sulfo)(Fucα1,3)GlcNAcβ1,6(NeuAcα2,3Galβ1,3)GalNAcα-O-Me]",
4.4%,6.1%,100.0% and 100.0^c %,"CO[C@H]1[C@@H](O)[C@@H](CO)O[C@@H](O[C@H]2[C@H](O)[C@@H](NC(C)=O)[C@H](OC[C@H]3O[C@H](OCc4ccccc4)[C@H](NC(C)=O)[C@@H](O[C@@H]4O[C@H](CO)[C@H](O)[C@H](O)[C@H]4O)[C@H]3O)O[C@@H]2CO)[C@@H]1O [3-O-MeGalβ1,4GlcNAcβ1,6(Galβ1,3)GalNAcα-O-Bn]","Sialyltransferase activity (%) LNCaP α2,3(O)ST (LNCaP α2,3(O)ST; Table I, acceptor 7.5 mM, 100% = 30930 CPM (3-O-MeGalβ1,4GlcNAcβ1,6(Galβ1,3)GalNAcα-O-Bn)): 100.9% and 100.0% and 100.0^d %; LNCaPα2,3(O)ST % (LNCaP α2,3(O)ST; Table III, compound 7.5 mM, 100% = 30100 CPM (3-O-MeGalβ1,4GlcNAcβ1,6(Galβ1,3)GalNAcα-O-Bn)): 100.0^d %; Cloned Sialyltransferase Activities α2,6(N)ST % [1]: 6.4%; Cloned Sialyltransferase Activities α2,3(N) ST % [2]: 4.5%; Cloned Sialyltransferase Activities α2,3(O) ST % [3]: 100.0^c %"
0.9%,50.8% and 50.8^22%,,"CO[C@H]1O[C@H](CO[C@@H]2O[C@H](COS(=O)(=O)O)[C@@H](O[C@@H]3O[C@H](CO)[C@H](O)[C@H](O)[C@H]3O)[C@H](O)[C@H]2NC(C)=O)[C@H](O)[C@H](O[C@@H]2O[C@H](CO)[C@H](O)[C@H](O[C@]3(C(=O)O)C[C@H](O)[C@@H](NC(C)=O)[C@H]([C@H](O)[C@H](O)CO)O3)[C@H]2O)[C@H]1NC(C)=O [Galβ1,4(6-O-Sulfo)GlcNAcβ1,6(NeuAcα2,3Galβ1,3)GalNAcα-O-Me]","Sialyltransferase activity (%) Cloned α2,3(N)ST ([2]; listed as Galβ1,4(6-O-Sulfo)GlcNAcβ1,6(NeuAcα2,3Galβ1,3)GalNAcα-): 50.8%"
0%,,,"CO[C@H]1[C@H](O[C@H]2[C@H](O)[C@@H](CO)O[C@@H](OCc3ccccc3)[C@@H]2NC(C)=O)O[C@H](CO)[C@H](O)[C@@H]1O [2-O-MeGalβ1,3GlcNAcβ-O-Bn]",
,,,"CC(=O)N[C@H]1[C@H](OC[C@H]2O[C@H](OCc3ccccc3)[C@H](NC(C)=O)[C@@H](O[C@@H]3O[C@H](CO)[C@H](O)[C@H](O)[C@H]3O)[C@H]2O)O[C@H](CO)[C@@H](O[C@@H]2O[C@H](CO)[C@H](F)[C@H](O)[C@H]2O)[C@@H]1O [4-FGalβ1,4GlcNAcβ1,6(Galβ1,3)GalNAcα-O-Bn]","Cloned Sialyltransferase Activities α2,6(N)ST % [1]: 2.7%; Cloned Sialyltransferase Activities α2,3(N) ST % [2]: 7.9%; Cloned Sialyltransferase Activities α2,3(O) ST % [3]: 102.1%"
8.7%,1.4%,3.6%,"CO[C@H]1[C@@H](O)[C@@H](CO)O[C@@H](O[C@H]2[C@H](O)[C@@H](NC(C)=O)C(O)O[C@@H]2CO)[C@@H]1O (stereo partly drawn) [3-O-MeGalβ1,4GlcNAc]",
